# Results reported in patent US20190209680A1, “TREATMENT OF ACUTE LIVER FAILURE” (The University of Birmingham, priority 2016, published 2019).
# System: carbon tetrachloride induced liver injury in CLEC1b fl/fl PF4cre mice
# Assay: Carbon tetrachloride injection in CLEC1b fl/fl PF4cre (KO) mice pre-treated with Etanercept
# Assay type: in vivo, mouse
# Details: for Number of neutrophils per gram of liver tissue: 48 hours after carbon tetrachloride injection
# Protocol: Kupffer cells isolated from WT mouse livers were plated in a tissue culture well, treated with lipopolysaccharide (LPS) and incubated with either platelets from CLEC2 deficient animals or WT platelets. (A) Production of TNF-alpha by Kupffer cells was measured in response to LPS plus either CLEC-2 deficient (KO) platelets or WT platelets (n=4 per group). (B) Isolated Kupffer cells (F480^+, shown in green), were incubated with either CLEC2 deficient or WT platelets (CD41^+, shown in purple). DAPI (blue) was used as a nuclear stain. Representative images (63× magnification) are shown. (C) Serum was isolated from WT and CLEC1b fl/fl PF4cre (KO) mice at 24 hours after carbon tetrachloride injection and serum TNF-alpha levels measured by ELISA. Levels are shown as picograms/ml (n=6/group) (*P<0.05, **P<0.01, ***P<0.001), (D) CLEC1b fl/fl PF4cre mice were pre-treated with an anti-TNF-alpha monoclonal antibody (Etanercept) before carbon tetrachloride injection (KO+AB). WT and CLEC1b fl/fl PF4cre mice not pre-treated before carbon tetrachloride injection were used as controls (WT and KO, accordingly). Mice were sacrificed 48 hours after the carbon tetrachloride injection. […]
# Mouse livers were harvested after the animal was euthanized under deep sedation after cardiac puncture. […] The resulting immune cells were then purified using an Optiprep gradient (Sigma) and analysed by flow cytometry. […] Absolute cell counts were determined with AccuCheck Counting Beads (Invitrogen), and the number of cells was normalised to the total liver weight. Data were analysed using a CyAn ADP flow cytometer (Beckman Coulter) or a BD LSRII using Summit version 4.3 or FlowJo version 10.0.7 software where appropriate.
# Serum was isolated from whole blood and levels of liver-specific enzymes AST and ALT were measured on a clinical autoanalyser, according to standard protocols in the Biochemistry Department at the Birmingham Women's Hospital, Birmingham, UK. […]
substance,measurement,setting,value
Etanercept,Number of neutrophils per gram of liver tissue,compared to CLEC1b fl/fl PF4cre mice not pre-treated with antibody (FIG. 3D),substantially reduced
same,Number of neutrophils per gram of liver tissue,pre-treated KO mice relative to WT control (FIG. 3D),comparable to WT control
same,Serum ALT levels,"48 hours post carbon tetrachloride, compared to CLEC-2 deficient mice not given antibody (FIG. 3E)",considerably higher
